# Tests used:
# [1] = test system: HUVEC-12 endothelial cells; experiment: Migration of HUVEC-12 endothelial cells (scratch test); format: cell-based, Human; settings: direct treatment of HUVEC-12, 24 h; compounds 10 μM, VEGF165 10 ng/mL; vs control medium
# Description: (§1) The experiment included seven groups. In Group 1, HUVEC-12 endothelial cells (purchased from Shanghai RongChuang Biotech Co., Ltd.) were treated directly with simple DMEM medium (Gibcol, Shanghai) containing 10% FBS (SERANA, Germany) (control). In Group 2, the endothelial cells were treated with the supernatant obtained 24 h after macrophages were cultured with DMEM medium containing 10% FBS (s-control). In Group 3, the endothelial cells cultured with DMEM medium containing 10% FBS were treated directly with TG-028 (TG-028, 10 μM). In Group 4, the endothelial cells were treated with the supernatant obtained after macrophages cultured with DMEM medium containing 10% FBS were treated and co-incubated with TG-028 for 24 h (s-TG-028, […]). In Group 5, the endothelial cells cultured with DMEM medium containing 10% FBS were treated directly with Cpd-18 (Salvianolate) (cpd-18, 10 μM). In Group 6, the endothelial cells were treated with the supernatant obtained after macrophages cultured with DMEM medium containing 10% FBS were treated and co-incubated with Cpd-18 (Salvianolate, 10 μM) for 24 h (s-cpd18). In Group 7, the endothelial cells cultured with DMEM medium containing 10% FBS were treated directly with VEGFD (Recombinant Human VEGF165, 10 ng/mL).
# Human umbilical vein endothelial cells HUVEC-12 in logarithmic growth phase were counted, adjusted to a cell density of 5×10^5 cells/mL, and inoculated in 1 mL per well in a 6-well plate. The cells were conventionally cultured in an incubator to form monolayer cells of 90% confluency. The 6-well plate fully plated with cells was scratched perpendicular to the cell surface with a 200 μL pipette tip from one end to the other end of the well. The scratches were made transversely with the pipette tip being as perpendicular as possible to the bottom of the plate. […]
# The medium was aspirated and the cells scratched off were washed off with PBS. […] The migration of endothelial cells was detected according to the cell scratch method and the relative migration rate was calculated. […]
# [2] = test system: rats with middle cerebral artery occlusion (MCAO); experiment: Acute cerebral infarction model in rats with middle cerebral artery occlusion (MCAO); format: in vivo, male SD rats; settings: MCAO, after 3 days, FIGS. 11-13
# Source text: After obtaining the active molecules that can promote the expression of VEGF-A mRNA in the animal model of inflammatory angiogenesis, a rat model of cerebral infarction was used for further verification. Following the method as described in Longa, E. Z., Longa, E. Z., Weinstein, P. R., Carlson, S. & Commin, R. Reversible middle cerebral artery occlusion without craniectomy in rats. [J]. Stroke, 1989. 1: 84-91, an acute cerebral infarction model was established in rats with middle cerebral artery occlusion (MCAO); and following the method as described in C. dela Torre, T. Fortin, G. A. S. Park, K. S. Butler, P. Kozlowski, B. A. Pappas, H. de Socarraz, J. K. Saunders and M. T. Richard. [J]. Brain Research, 1992. 582:186-195, a chronic cerebral ischemia model was established in rats with permanent ligation of bilateral common carotid arteries (2VO). The inhibition on cerebral infarction and neuroprotection for brain injury of the active molecules screened in Effect Example 2 were verified.
# The control drugs were: Edaravone (purchased from Zhejiang Shengtong Biotechnology Co., Ltd.), Clopidogrel bisulfate (purchased from Wuhan Yuancheng Gongchuang Technology Co., Ltd.), and Salvianolate (purchased from Henan Provincial People's Hospital). Clopidogrel bisulfate is a platelet aggregation inhibitor, and Edaravone is a brain protectant (free radical scavenger). The MCAO model of rats was made by the thread occlusion method. The rats used in this effect example were male SD rats weighing 280-320 grams, purchased from Shanghai SLAC Laboratory Animal Co., Ltd. Five SD (Sprague Dawley) rats in each group were administered by intraperitoneal injection, 2 h before surgery, and every 24 h after modeling.
# Three days later, the brain was taken, and the rat brain was stained with TTC (2,3,5-triphenyltetrazolium chloride, to detect the cell viability) and then photographed. Infarction rate (%)=(Non-infarction area of right brain section−non-infarction area of left brain section)/total area of brain section*100%. According to t tests, *P<0.05, **P<0.01, ***P<0.001 compared with the model group (MCAO). Infarction inhibition rate (%) at different doses=(infarction rate of model group-infarction rate of treatment group)/infarction rate of model group*100%. The infarction inhibition rate at different doses was plotted, and the ED50 of the drug was calculated.
# Moreover, the body weight of the rats was recorded. The rate of body weight change was calculated according to a formula: Rate of body weight change (%)=(final weight-initial weight)/[…].
# Three days after the acute cerebral infarction model was established in rats with MCAO, the test rats were scored for neurological function according to the Longa nerve scoring standard.
# Three days after the acute cerebral infarction model of MCAO was established in rats, the intact brain tissue was taken out, olfactory bulb and the brain tissue that is 4 mm in front of the frontal pole was removed, and the immediately adjacent brain tissue of 2 mm thick was taken for water content measurement in the brain. The water content in brain tissue is calculated by the formula: (WW−DW)/WW×100%, where WW is the wet weight and DW is the dry weight. Three days after the acute cerebral infarction model of MCAO was established in rats, the brain tissue was stained with Evans Blue (EB, a commonly used azo dye preparation) to evaluate the permeability across the blood-brain barrier (BBB), so as to evaluate the integrity of blood-brain barrier. Both experiments were tested with the optimal dose of each drug previously determined: TG-028 (5 mg/Kg), Salvianolate (20 mg/Kg), Clopidogrel bisulfate (40 mg/Kg), Edaravone (40 mg/Kg).
# [3] = test system: HUVEC-12 endothelial cells; experiment: Tubule formation of HUVEC-12 endothelial cells (Matrigel); format: cell-based, Human; settings: direct treatment of HUVEC-12, 3 h; compounds 10 μM, VEGF165 10 ng/mL; vs control medium
# Description: as §1
# A 96-well plate and sterile yellow pipette tip were stored overnight in a refrigerator at −20° C. The packed Matrigel was thawed overnight in a refrigerator at 4° C. before the experiment. On the following day, the Matrigel thawed was centrifuged for a few minutes. 60 μL per well of the pre-cooled Matrigel was added to a 96-well plate in an ice bath on a ultra-clean bench, and then allowed to stand in an incubator for 1 h. After Matrigel was solidified, HUVEC-12 cells in logarithmic growth phase were taken and adjusted for the cell density. The cells were well mixed with each group of medium at a density of 5×10^4 cells/well and inoculated into a 96-well plate. […] The tube-like structure was analyzed by ImageJ image-analysis software, and the tube formation ability was evaluated using number of master junction as a quantitative index.
substance,measurement,setting,value
VEGF,effect on migration of endothelial cells (in words),[1],significant effect on the migration of endothelial cells
same,inhibitory effect on cerebral infarction (in words),[2],can inhibit cerebral infarction in rats
same,effect on tube formation of endothelial cells (in words),[3],significant effect on the tube formation of endothelial cells

# Source: US11325937B2, “Glycoside compound and preparation method therefor, composition, application, and intermediate” (SHANGHAI HUTCHISON PHARMACEUTICALS LIMITED, priority 2018, dated 2022)
